Data published in article PMC10698238 (Planta medica, 2023).
Entries after “also recorded” stand apart in the source; their conditions may differ. Where two headings read alike, the source gives them in different places. Marks after values point to notes of the source that are not given here.

Legend:
Phyllosticta citricarpa [1] = experiment: Inhibition of Phyllosticta citricarpa pycnidia development in citrus leaves; type: cell-based; settings: 21 days; for Decrease of the number of pycnidia produced by P. citricarpa in citrus leaves: 10 mg/mL
Phyllosticta citricarpa [2] = experiment: Mycelial growth inhibition assay in petri dishes; type: cell-based; settings: 21 days; for Inhibition of mycelial growth of P. citricarpa: petri dishes, 10 mg/mL
Phyllosticta citricarpa [3] = experiment: Inhibition of citrus black spot development in detached citrus fruits; type: in vivo; settings: 21 days; for Inhibition of CBS symptoms in citrus fruits: 10 mg/mL
[4] = tested on: PC3 (prostate cancer) cell line; experiment: Cytotoxicity assay; settings: read-out: IC50 PC3
[5] = tested on: A549 (non-small cell lung cancer) cell line; experiment: Cytotoxicity assay; settings: read-out: IC50 A549
HCT-116 = settings: cited from earlier work
[6] = detached C. sinensis fruits, 10 μL of 10 mg/mL solution in methanol

Molecule	Decrease of the number of pycnidia produced by P. citricarpa in citrus leaves (Phyllosticta citricarpa [1])	Development of citrus black spot (CBS) symptoms (Phyllosticta citricarpa [3]; [6])	IC50 ([4]; Homo sapiens, 72 h) [µM]	IC50 ([5]; Homo sapiens, A549, 72 h) [µM]	IC50 ([4]; 72 h incubation) [µM]	IC50 ([5]; 72 h incubation) [µM]	further results
Cc1cc(O)c2c(=O)c3c(C(=O)O)cccc3oc2c1 [8a, 8-hydroxy-6-methyl-9-oxo-9H-xanthene-1-carboxylic acid]	less than 14%						
Cc1cc(C(=O)O)c2c(=O)c3c(O)cccc3oc2c1 [8b, 8-hydroxy-3-methyl-9-oxo-9H-xanthene-1-carboxylic acid]	less than 14%						
COC(=O)Nc1nc2ccccc2[nH]1 [Carbendazim, carbendazim, reference compound]							Growth [in cm mean (± SD)] of Phyllosticta citricarpa in petri dishes (Phyllosticta citricarpa [2]; positive control, carbendazim 1.0 mg/mL): 0 ^* cm; Number of pycnidia produced in leaves by P. citricarpa (Phyllosticta citricarpa [1]; positive control): 0; Development of citrus black spot (CBS) symptoms (Phyllosticta citricarpa [3]; positive control, 50 μg carbendazim, detached fruits): −
CC(=O)OC[C@]12Oc3c(-c4ccc(O)c5c4O[C@@]4(COC(C)=O)C(=C(O)C[C@@H](C)[C@H]4OC(C)=O)C5=O)ccc(O)c3C(=O)C1=C(O)C[C@@H](C)[C@H]2OC(C)=O [compound 3, phomoxanthone A]	70.2%	−	3.18 ± 0.02	4.95 ± 0.53			Inhibition of CBS symptoms in citrus fruits (Phyllosticta citricarpa [3]; detached fruits): inhibited the development of citrus black spot symptoms; also recorded: completely inhibited CBS symptoms; also recorded: suppressed the hyphal growth and development of CBS lesions
CC(=O)OC[C@]12Oc3ccc(-c4ccc(O)c5c4O[C@@]4(COC(C)=O)C(=C(O)C[C@@H](C)[C@H]4OC(C)=O)C5=O)c(O)c3C(=O)C1=C(O)C[C@@H](C)[C@H]2OC(C)=O [compound 4, phomoxanthone B]	63.1%	+	7.39 ± 0.62	10.4 ± 0.59			
CC(=O)OC[C@]12Oc3ccc(-c4ccc5c(c4O)C(=O)C4=C(O)C[C@@H](C)[C@@H](OC(C)=O)[C@@]4(COC(C)=O)O5)c(O)c3C(=O)C1=C(O)C[C@@H](C)[C@H]2OC(C)=O [compound 5, dicerandrol C]	less than 14%	+	2.23 ± 0.13	2.92 ± 0.24			
C=C1[C@@H](C)[C@H]2[C@H](Cc3ccccc3)NC(=O)[C@]23[C@H](OC(C)=O)/C=C/[C@](C)(O)C[C@@H](C)C/C=C/[C@H]3[C@@H]1O [compound 6, cytochalasin H]	78.3%	−			> 50	> 50	Inhibition of mycelial growth of P. citricarpa (Phyllosticta citricarpa [2]): 80%; Inhibition of CBS symptoms in citrus fruits (Phyllosticta citricarpa [3]; detached fruits): inhibited the development of citrus black spot symptoms; also recorded: completely inhibited CBS symptoms; also recorded: suppressed the hyphal growth and development of CBS lesions
C=C1[C@@H](C)[C@H]2[C@H](Cc3ccccc3)NC(=O)[C@]23[C@H](O)/C=C/[C@](C)(O)C[C@@H](C)C/C=C/[C@H]3[C@@H]1O [compound 7, cytochalasin J]	less than 14%	+			> 80	> 80	
CCCCCCCc1cc(=O)c2c(CC(=O)OC)cc(O)cc2o1 [compound 9, 5-carbomethoxymethyl-2-heptyl-7-hydroxychromone]	no activity	+	> 80	> 80			
Cc1occc(=O)c1O [compound 10, maltol]	less than 14%	+	> 80	> 80			
COc1cc2c(cc1OC)[C@]1(O)C(=O)c3ccc4c(c3O[C@@H]1CO2)C=CC(C)(C)O4 [tephrosin]							Activity against colorectal cancer cell line HCT-116 (HCT-116): showed activity
paecilin Q [compound 1]	50.5%	+			> 80	> 80	Inhibition of mycelial growth of P. citricarpa (Phyllosticta citricarpa [2]): 48.6%
paecilin R [compound 2]	35.5%	+			> 80	> 80	
